# Residues, ends and D or L forms follow the SMILES beside them. *: point of attachment. Cbz = O=C(OCc1ccccc1)*; CH2F = FC*
# System: glioma cells
# Test: Rescue of SapC-DOPS-induced killing by pathway inhibitors
# Format: cell-based
# Details: inhibitor given with SapC-DOPS
# Description: Synergy analysis was completed using CompuSyn software.
row,Structure (SMILES),rescue of SapC-DOPS-induced killing
1,Cn1cnc(N)c2ncnc1-2 [3-methyladeneine],significant rescue
2,COC(=O)C[C@H](NC(=O)[C@H](C)NC(=O)[C@@H](NC(=O)OCc1ccccc1)C(C)C)C(=O)CF [Z-VAD-FMK] (Cbz-Val-Ala-Asp(OMe)-CH2F),did not rescue
3,CO/C1=C\C(C)=C\[C@@H](C)[C@@H](O)[C@@H](C)C/C(C)=C/C=C/[C@H](OC)[C@@H]([C@@H](C)[C@@H](O)[C@H](C)[C@@]2(O)C[C@@H](O)[C@H](C)[C@@H](C(C)C)O2)OC1=O [bafilomycin Al],significant rescue

# — patent US9757432B2, “Materials and methods useful for treating glioblastorna” (Ohio State Innovation Foundation, priority 2012, dated 2017)
